Data on 10 compounds can be found in publication PMC10424176, “Chamelogk: A Chromatographic Chameleonicity Quantifier to Design Orally Bioavailable Beyond-Rule-of-5 Drugs” (Journal of Medicinal Chemistry, 2023).

Entries after “also recorded” stand apart in the source; their conditions may differ. Like-named read-outs stand apart in the source and are kept apart here.

A short description of data set [1]: physchem. The class given is physicochemical. As to the method:
(§1) The mobile phases for every descriptor consisted of isocratic solutions of 20 mM ammonium acetate at pH 7.0 and acetonitrile at various percentages (see the specific descriptor). Small amounts of the 55 compounds were dissolved in buffer/acetonitrile mixtures (v/v) at concentrations ranging from 50 to 100 μg/mL. Subsequently, 10 μL of each solution (injection volume) was injected at an isocratic flow rate of 1 mL/min and analyzed at 30 °C (oven temperature). Chromatographic measurements were then analyzed in duplicate based on the specific chromatographic conditions of each descriptor.
BRlogD[39] required the injection of 55 samples into the X-Bridge column at 60% MeCN (predominant mobile phase constituent). The retention times and dead time (t0, baseline interference) were recorded, and the capacity factor log k’60 was calculated adapting eq 2. Lastly, BRlogD value was calculated from eq 3 [drawing 3] 3

For data set [2] the following is noted: difference between maximum and minimum 3D-PSA among crystallized conformers; cited from earlier work.
The nature of data set [3]: Chamelogk, chromatographic chameleonicity descriptor (PLRP-S RP-HPLC). The conditions noted are these: Exp. minus Ext. log k' PLRP-S at 100% MeCN; linear fit at 50, 60, 70% MeCN; 20 mM ammonium acetate pH 7.0; 30 °C. It is filed as physicochemical.
The nature of data set [4]: log kW^IAM and Δ log kW^IAM (IAM chromatography). The class given is physicochemical. The conditions noted are these: for log kW^IAM: IAM column, extrapolated to 100% buffer from 10 to 50% MeCN, pH 7.0; for Δ log kW^IAM: polarity, from log kW^IAM and BRlogD (eq 4, 5). How it is done:
as §1, with “descriptor. […] The retention times of the samples were recorded, and the capacity factor was calculated for each mobile phase condition adapting eq 2, where t0 is the retention time of citric acid.” for “descriptor.”

The conditions of data set [5]: solubility range class; cited from earlier work.
For data set [6] the following is noted: oral activity; cited from earlier work.
The conditions of data set [7]: cited from earlier work.
Setting [8] is: XBridge column, 60% MeCN, pH 7.0, read-out: BRlogD.
[9] abbreviates: XBridge Shield RP18 HPLC column, XBridge column, 60% MeCN, pH 7.0, read-out: BRlogD.

For the compound `CCC[C@H](NC(=O)[C@@H]1[C@H]2CCC[C@H]2CN1C(=O)[C@@H](NC(=O)[C@@H](NC(=O)c1cnccn1)C1CCCCC1)C(C)(C)C)C(=O)C(=O)NC1CC1` [telaprevir], the chromatographic logD in data set [1] (setting [8]) came to 3.6. Besides, the “X-Ray Δ 3D-PSA” value in data set [2] was 32. The Chamelogk in data set [3] amounted to 0.31. For the same compound, in data set [4], the “log kW^IAM” value was 3.02 and the “Δ log kW^IAM” value is given as 0.75.

In data set [1] (pH 7), `Cc1ncsc1-c1ccc(CNC(=O)[C@@H]2C[C@H](O)CN2C(=O)[C@@H](NC(=O)COCCOCCOCCNC(=O)C[C@@H]2N=C(c3ccc(Cl)cc3)c3c(sc(C)c3C)-n3c(C)nnc32)C(C)(C)C)cc1` [cisMZ1] registered a chromatographic logD of 1.87. Also, the Chamelogk in data set [3] is on record as 1.27. Also, the LogS entry in data set [5] is recorded as “Int. range”. Further, the “Abs. Route” value in data set [6] is given as “Non-oral”. Besides, in data set [4], the “log kW^IAM” value was 2.90 and the “Δ log kW^IAM” value is given as 2.20.

For `COC(=O)N[C@H](C(=O)N[C@@H](Cc1ccccc1)[C@@H](O)CN(Cc1ccc(-c2ccccn2)cc1)NC(=O)[C@@H](NC(=O)OC)C(C)(C)C)C(C)(C)C` [atazanavir], the chromatographic logD in data set [1] (setting [9]) was 3.15. Moreover, in data set [2], the “X-Ray Δ 3D-PSA” value is on record as 34. Further, in data set [7], the ChameLogD is listed as 1.6. Further, the Chamelogk in data set [3] stood at 0.33. Further, in data set [4], the “log kW^IAM” value is listed as 2.74 and the “Δ log kW^IAM” value turned out to be 0.87.

In the case of `Cc1c(O)cccc1C(=O)N[C@@H](CSc1ccccc1)[C@H](O)CN1C[C@H]2CCCC[C@H]2C[C@H]1C(=O)NC(C)(C)C` [nelfinavir], in data set [1] (setting [9]), the chromatographic logD came to 4.73. For the same compound, the BRlogD entry in data set [1] (XBridge column, 60% MeCN, pH 7.0) is “below 5”. Besides, the ChameLogD in data set [7] was 1.4. In data set [3], this compound gave a Chamelogk of 0.74. In addition, in data set [4], the “log kW^IAM” value is on record as 2.69 and the “Δ log kW^IAM” value was -0.63.

In data set [1] (pH 7), `CO[C@H]1C[C@@H]2CC[C@@H](C)[C@@](O)(O2)C(=O)C(=O)N2CCCC[C@H]2C(=O)O[C@H]([C@H](C)C[C@@H]2CC[C@@H](OCCO)[C@H](OC)C2)CC(=O)[C@H](C)/C=C(\C)[C@@H](O)[C@@H](OC)C(=O)[C@H](C)C[C@H](C)/C=C/C=C/C=C/1C` [everolimus] gave a chromatographic logD of 4.86. Moreover, the ChameLogD in data set [7] was 1.7. In data set [3], this compound displayed a Chamelogk of 0.45. Also, in data set [4], the “log kW^IAM” value is listed as 4.15 and the “Δ log kW^IAM” value worked out at 0.71.

Regarding `Cc1ncsc1-c1ccc(CNC(=O)[C@@H]2C[C@@H](O)CN2C(=O)[C@@H](NC(=O)COCCOCCOCCNC(=O)C[C@@H]2N=C(c3ccc(Cl)cc3)c3c(sc(C)c3C)-n3c(C)nnc32)C(C)(C)C)cc1` [MZ1], in data set [1] (pH 7), the chromatographic logD came out at 1.77. This compound showed a Chamelogk in data set [3] of 1.15. Further, the LogS entry in data set [5] is recorded as “Int. range”. Also, the “Abs. Route” value in data set [6] is recorded as “not orally bioavailable; also recorded: Non-oral”. Also, in data set [4], the “log kW^IAM” value was 2.83 and the “Δ log kW^IAM” value is given as 2.24.

As for `CO[C@H]1C[C@@H]2CC[C@@H](C)[C@@](O)(O2)C(=O)C(=O)N2CCCC[C@H]2C(=O)O[C@H]([C@H](C)C[C@@H]2CC[C@@H](O)[C@H](OC)C2)CC(=O)[C@H](C)/C=C(\C)[C@@H](O)[C@@H](OC)C(=O)[C@H](C)C[C@H](C)/C=C/C=C/C=C/1C` [sirolimus], the chromatographic logD in data set [1] (pH 7) came to 4.97. Further, the ChameLogD in data set [7] is recorded as 1.4. Moreover, in data set [3], the Chamelogk came to 0.25. In addition, in data set [4], the “log kW^IAM” value is 3.96 and the “Δ log kW^IAM” value is reported as 0.42.

Take `Cc1sc2c(c1C)C(c1ccc(Cl)cc1)=N[C@@H](CC(=O)Nc1ccc(OCCOCCOCCOCCNc3cccc4c3C(=O)N(C3CCC(=O)NC3=O)C4=O)cc1)c1nnc(C)n1-2` (some centres unmarked) [ARV-825]: the chromatographic logD in data set [1] (setting [8]) came out at 3.49. The compound also came in with a Chamelogk in data set [3] of 0.72. For the same compound, the LogS result in data set [5] is listed as “Low range”. Further, in data set [6], the “Abs. Route” value is given as “orally active”. For the same compound, in data set [4], the “log kW^IAM” value is 3.49 and the “Δ log kW^IAM” value came out at 1.31.

Compound `CC(C)(C)NC(=O)[C@@H]1C[C@@H]2CCCC[C@@H]2CN1C[C@@H](O)[C@H](Cc1ccccc1)NC(=O)[C@H](CC(N)=O)NC(=O)c1ccc2ccccc2n1` [saquinavir] returned a BRlogD in data set [1] (pH 7) of 2.85. Also, the “X-Ray Δ 3D-PSA” value in data set [2] was 21. The compound also yielded a Chamelogk in data set [3] of 1.23. Moreover, in data set [4], the “log kW^IAM” value was 3.44 and the “Δ log kW^IAM” value is given as 1.85.

Compound `CC(C)c1nc(CN(C)C(=O)N[C@H](C(=O)N[C@@H](Cc2ccccc2)C[C@H](O)[C@H](Cc2ccccc2)NC(=O)OCc2cncs2)C(C)C)cs1` [ritonavir] came in with a chromatographic logD in data set [1] (pH 7) of 3.29. Further, the “X-Ray Δ 3D-PSA” value in data set [2] is given as 53. In addition, the ChameLogD in data set [7] is recorded as 1.6. In data set [3], this compound showed a Chamelogk of 0.67. Further, in data set [4], the “log kW^IAM” value is reported as 3.02 and the “Δ log kW^IAM” value worked out at 1.02.
